Data published in PMC3931136 (Scientific Reports, 2014).

Test system: S. suis BgaC
Experiment: p-nitrophenol release, absorbance at […] nm
Type: biochemical, Streptococcus suis
Conditions: pH 5.5, 42 °C, 30 min (stated optimum); PBS, 10 mM MgCl2, 10 mM DTT

O=[N+]([O-])c1ccc(O[C@@H]2O[C@H](CO)[C@H](O)[C@H](O)[C@H]2O)cc1 [pNPG, p-nitrophenyl-β-galactopyranoside] was tested, and the Km was 398 µM.
